In patent US7098218B2, “Steroidal compounds for inhibiting steroid sulphatase” (priority 2001, dated 2006):
Values joined by “and” are separate entries in the source; they are usually repeats but may differ in a detail not shown here. Equal values may be shown once.

Tests used:
[1] = target: T1, STS (Homo sapiens, UniProt P08842); experiment: biochemical
T1 construct: can be assessed using either intact MCF-7 breast cancer cells or placental microsomes
T1 sequence (P08842 22-583): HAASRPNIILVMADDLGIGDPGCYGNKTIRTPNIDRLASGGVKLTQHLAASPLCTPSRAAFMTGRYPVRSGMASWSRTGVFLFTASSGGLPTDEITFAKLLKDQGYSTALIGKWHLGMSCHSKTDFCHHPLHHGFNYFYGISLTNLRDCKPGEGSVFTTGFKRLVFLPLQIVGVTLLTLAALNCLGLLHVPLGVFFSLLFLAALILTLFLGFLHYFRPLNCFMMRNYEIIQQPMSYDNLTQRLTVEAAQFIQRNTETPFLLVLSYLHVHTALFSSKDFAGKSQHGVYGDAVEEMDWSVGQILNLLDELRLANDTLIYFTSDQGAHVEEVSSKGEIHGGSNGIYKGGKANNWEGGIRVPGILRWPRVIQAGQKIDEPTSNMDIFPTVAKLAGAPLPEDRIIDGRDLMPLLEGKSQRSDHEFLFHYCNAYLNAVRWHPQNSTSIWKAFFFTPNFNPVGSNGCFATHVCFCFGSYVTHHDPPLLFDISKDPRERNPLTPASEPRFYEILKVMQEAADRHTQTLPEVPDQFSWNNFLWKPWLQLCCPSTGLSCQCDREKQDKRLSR

[2] = target: T2, steroid sulphatase (Homo sapiens, UniProt P08842); conditions: cited from earlier work
T2 sequence (P08842 22-583): T1 sequence (P08842 22-583)

[3] = target: T3, human placental steroid sulphatase (Homo sapiens, UniProt P08842); experiment: Inhibition of oestrone sulphatase activity in human placental microsomes; format: biochemical
T3 construct: Placental microsomes (100000 g fraction) were prepared from a positive-positive human placenta from a normal-term pregnancy; from tissue; host or cells: human placenta, microsomal fraction
T3 sequence (P08842 22-583): T1 sequence (P08842 22-583)

[4] = target: T4, E1-STS in intact MCF-7 cells (Homo sapiens, UniProt P08842); parameters: dose or concentration left out as unconfirmed; conditions: cited from earlier work
T4 construct: endogenous in cells; host or cells: MCF-7 human breast cancer cells
T4 sequence (P08842 22-583): T1 sequence (P08842 22-583)

[5] = test system: rats (uterotrophic activity); conditions: cited from earlier work
[6] = test system: breast tumour cells; conditions: cited from earlier work
[7] = test system: ovariectomised rats (uterine growth); experiment: In vivo oestrogenicity, uterine growth in ovariectomised rats (Protocol 4); parameters: species or system rat; conditions: 10 mg/Kg/day for five days orally, uterine weight
Method: The compounds of the present invention may be studied using an animal model, in particular in ovariectomised rats. In this model, compounds which are oestrogenic stimulate uterine growth.
The compound (10 mg/Kg day for five days) was administered orally to rats with another group of animals receiving vehicle only (propylene glycol). A further group received the estrogenic compound EMATE subcutaneously in an amount of […] for five days. At the end of the study uteri were obtained and weighed with the results being expressed as uterine weight/whole body weight×100.

[8] = target: T5, rat liver STS (Rattus norvegicus, UniProt P15589); experiment: Inhibition of oestrone sulphatase activity in vivo, rat liver (Protocol 3); conditions: rats; 10 mg/Kg/day for five days orally
T5 construct: samples of liver tissue were obtained and oestrone sulphatase activity assayed; from tissue; host or cells: rat liver
T5 sequence (P15589 20-577): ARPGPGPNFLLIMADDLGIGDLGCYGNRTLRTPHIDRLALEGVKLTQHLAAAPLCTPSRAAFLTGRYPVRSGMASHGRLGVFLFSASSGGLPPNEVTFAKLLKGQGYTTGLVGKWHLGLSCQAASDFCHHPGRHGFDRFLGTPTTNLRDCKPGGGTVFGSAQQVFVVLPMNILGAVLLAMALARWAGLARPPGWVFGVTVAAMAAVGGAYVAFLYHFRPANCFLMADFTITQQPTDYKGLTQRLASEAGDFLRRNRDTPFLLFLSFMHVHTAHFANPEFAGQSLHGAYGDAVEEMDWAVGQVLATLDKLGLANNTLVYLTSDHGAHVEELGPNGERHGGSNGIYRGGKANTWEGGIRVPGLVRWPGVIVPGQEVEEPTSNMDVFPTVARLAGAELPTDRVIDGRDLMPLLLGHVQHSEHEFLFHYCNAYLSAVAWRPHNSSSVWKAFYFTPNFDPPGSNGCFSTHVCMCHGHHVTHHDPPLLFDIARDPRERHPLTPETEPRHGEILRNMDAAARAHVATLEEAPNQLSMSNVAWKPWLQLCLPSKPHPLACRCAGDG
Method: The compounds of the present invention may be studied using an animal model, in particular in ovariectomised rats. In this model compounds which are oestrogenic stimulate uterine growth.
The compound (10 mg/Kg/day for five days) was administered orally to rats with another group of animals receiving vehicle only (propylene glycol). A further group received the compound EMATE subcutaneously in an amount of 10 μg/day for five days. At the end of the study samples of liver tissue were obtained and oestrone sulphatase activity assayed using 3 H oestrone sulphate as the substrate as previously described (see PCT/GB95/02638).

[9] = read-out: Mean % Inhibition ± SD

NS(=O)(=O)Oc1ccc2c3c(c(=O)oc2c1)CCCCC3 [667 Coumate, reference compound]
667 Coumate value: % Inhibition ([1]; 0.005 µM): 5 nM = 63%Inhibition and 5 nM = 56%Inhibition
inhibition at 0.005 µM ([1]; read-out: 667 Coumate value: % Inhibition): 63%
times more potent than EMATE in vitro [2]: ~3 times

C[C@]12CC[C@@H]3c4ccc(OS(N)(=O)=O)cc4CC[C@H]3[C@@H]1CCC2=O [EMATE, estrone-3-O-sulfamate]
IC50 [3]: 8 nM
inhibition of E1-STS activity [4]: more than 99%
oral uterotrophic activity, times higher than that of oestradiol [5]: 100 times

C[C@]12CC[C@@H]3c4ccc(O)cc4CC[C@H]3[C@@H]1CC[C@@H]2O [Oestradiol, oestradiol]
proliferative effect, fold greater than oestrone [6]: 10 fold

CCCN1C(=O)CC2C3CCc4cc(OS(N)(=O)=O)ccc4C3CC[C@]2(C)C1=O (some centres unmarked) [STX213]
oestrogenicity (FIG. 2) [7]: lack of oestrogenicity

CCCN1C(=O)CC2C3CCc4cc(OS(N)(=O)=O)ccc4C3CC[C@]2(C)C1=O (some centres unmarked) [STX 213, 3Sulfamoyl-N-propyl-16,17-seco-estra-1,3,5(10)-triene-16,17-imide]
IC50 [3]: 1 nM
inhibition at 0.0001 µM [3, 9]: 21.2 ± 0.8%
inhibition at 0.001 µM [3, 9]: 49.3 ± 1.2%
inhibition at 0.01 µM [3, 9]: 64.1 ± 4.6%
inhibition at 0.1 µM [3, 9]: 84.6 ± 1.3%
inhibition at 1 µM [3, 9]: 96.8 ± 0.8%
inhibition at 10 µM [3, 9]: 99.3 ± 1.1%
inhibition of rat liver STS (FIG. 3) [8]: inhibition of rat liver STS

C[C@]12CCC3c4ccc(OS(N)(=O)=O)cc4CCC3C1CC(=O)N(Cc1cccnc1)C2=O (some centres unmarked) [STX 237, 3-Sulfamoyl-N-(3-picolyl)-16,17-seco-estra-1,3,5(10)-triene-16,17-imide]
inhibition of STS (in words) ([3]; in vitro): Good inhibition
times more potent than EMATE ([3]; ratio of IC50 values versus EMATE): 18 times
inhibition of rat liver STS (FIG. 3) [8]: inhibition of rat liver STS
oestrogenicity (FIG. 2) [7]: lack of oestrogenicity
